The test system of series [1] is Staphylococcus aureus. The series can be described thus: Antibacterial activity against Staphylococcus aureus 134/93 after 24 hrs by broth microdilution method. The settings on record: for MIC: Staphylococcus aureus, 134/93, 24 h. Format: functional.
The test system of series [2] is Mycolicibacterium smegmatis. The series can be described thus: Antibacterial activity against Mycobacterium smegmatis SG987 after 24 hrs by broth microdilution method. Format: functional. The settings on record: for MIC: Mycolicibacterium smegmatis, SG987, 24 h.
Series [3] deals with Escherichia coli. The series can be described thus: Antibacterial activity against Escherichia coli after 24 hrs by broth microdilution method. It counts as functional, organism-based.
Series [4] relates to Candida albicans. The series can be described thus: Antibacterial activity against Candida albicans after 24 hrs by broth microdilution method. Format: functional, organism-based.
A short description of series [5]: Partition coefficient, log P of the compound. The settings on record: octanol/water. Format: physicochemical.

Values after ≈ are worked out from the molar mass of the structure shown. Active and inactive are the calls of the source. How the calls were made is not given here.

The text below walks through data of ChEMBL document CHEMBL1149805, “Antibacterial activity of a novel series of 3-bromo-4-(1H-3-indolyl)-2,5-dihydro-1H-2,5-pyrroledione derivatives--an extended structure-activity relationship study” (Eur J Med Chem, 2008).

Consider `CCCCCOc1ccc2[nH]c(-c3ccccc3)c(C3=C(Br)C(=O)NC3=O)c2c1`, for which the “-logMIC” value in series [1] and in series [2] was 4.6 each time. In addition, the minimal inhibitory concentration (MIC) in series [1] turned out to be 27 µM (≈ 12.2 µg/mL); in series [2], 27.5 µM (≈ 12.5 µg/mL). The result in series [3] and in series [4] was inactive. In addition, in series [5], the logP was 3.75.
As for `CCCCc1cccc2c(C3=C(Br)C(=O)NC3=O)c(-c3ccccc3)[nH]c12`, the “-logMIC” value in series [1] was 6.6; in series [2], 4.8. Also, the results for the MIC in series [1] and in series [2] were 0.25 µM (≈ 0.106 µg/mL) and 14.7 µM (≈ 6.22 µg/mL), respectively. For the same molecule, the result in series [3] and in series [4] was inactive. Further, the lipophilicity (logP) in series [5] was found to be 3.88.
For `CCCCc1ccc2[nH]c(-c3cccc(OC)c3)c(C3=C(Br)C(=O)NC3=O)c2c1`, the “-logMIC” value in series [1] and in series [2] was 5.5 in each case. The values for the minimum inhibitory concentration (MIC) in series [1] and in series [2] were 3.4 µM (≈ 1.54 µg/mL) and 3.16 µM (≈ 1.43 µg/mL), respectively. The result in series [3] and in series [4] was inactive. The same molecule came in with a lipophilicity (logP) in series [5] of 3.81.
In the case of `O=C(CCCCc1[nH]c2ccccc2c1C1=C(Br)C(=O)NC1=O)Nc1ccccc1`, the “-logMIC” value in series [1] is listed as 5.8; in series [2] it was 4.6. Also, the values for the minimum inhibitory concentration (MIC) in series [1] and in series [2] were 1.7 µM (≈ 0.793 µg/mL) and 26 µM (≈ 12.1 µg/mL), respectively. The result in series [3] and in series [4] was inactive. Moreover, in series [5], the logP turned out to be 2.56.
On to `CCCCc1ccc2[nH]c(-c3ccc(OC)cc3)c(C3=C(Br)C(=O)NC3=O)c2c1`, for which the “-logMIC” value stood at 6.4 in series [1] and 5.5 in series [2]. The MIC turned out to be 0.44 µM (≈ 0.199 µg/mL) in series [1] and 3.4 µM (≈ 1.54 µg/mL) in series [2]. Besides, the outcome in series [3] and in series [4] was inactive. This molecule also had a logP in series [5] of 3.83.
In the case of `Cc1ccc(NC(=O)CCCc2[nH]c3ccccc3c2C2=C(Br)C(=O)NC2=O)cc1`, the entries for the “-logMIC” value in series [1] and in series [2] were 5.8 and 4.6, respectively. Moreover, the minimum inhibitory concentration (MIC) stood at 1.58 µM (≈ 0.737 µg/mL) in series [1] and 27 µM (≈ 12.6 µg/mL) in series [2]. Besides, the result in series [3] and in series [4] was inactive. For the same molecule, the logP in series [5] amounted to 2.56.
Take `COc1cccc(-c2[nH]c3ccc(OC)cc3c2C2=C(Br)C(=O)NC2=O)c1`: the “-logMIC” value in series [1] stood at 5.7; in series [2], 4.8. In addition, the MIC in series [1] stood at 1.9 µM (≈ 0.812 µg/mL); in series [2] it was 15.8 µM (≈ 6.77 µg/mL). For the same molecule, the result in series [3] and in series [4] was inactive. The molecule further yielded a log partition coefficient (logP) in series [5] of 2.79.
As for `CCOc1ccc2[nH]c(-c3ccc(OC)cc3)c(C3=C(Br)C(=O)NC3=O)c2c1`, the figures for the “-logMIC” value in series [1] and in series [2] were 5.7 and 4.8, respectively. The results for the MIC in series [1] and in series [2] were 2 µM (≈ 0.883 µg/mL) and 14.1 µM (≈ 6.22 µg/mL), respectively. Further, the result in series [3] and in series [4] was inactive. Further, the logP in series [5] came out at 2.77.
Consider `O=C1NC(=O)C(c2c(-c3ccc(OCc4cccc5ccccc45)cc3)[nH]c3ccccc23)=C1Br`, for which the “-logMIC” value in series [1] is listed as 5.8; in series [2] it was 5.5. Moreover, the minimal inhibitory concentration (MIC) turned out to be 1.5 µM (≈ 0.785 µg/mL) in series [1] and 3.16 µM (≈ 1.65 µg/mL) in series [2]. The outcome in series [3] and in series [4] was inactive. Further, the logP in series [5] was found to be 3.76.
Turning to `CCc1cccc2c(C3=C(Br)C(=O)NC3=O)c(-c3ccc(OC)cc3)[nH]c12`, the “-logMIC” value in series [1] is listed as 6.3; in series [2], 4.5. In addition, the results for the MIC in series [1] and in series [2] were 0.5 µM (≈ 0.213 µg/mL) and 29.4 µM (≈ 12.5 µg/mL), respectively. Further, the result in series [3] and in series [4] was inactive. In series [5], the logP is 3.35.
For `O=C(CCCCCc1[nH]c2ccccc2c1C1=C(Br)C(=O)NC1=O)Nc1ccccc1`, the results for the “-logMIC” value in series [1] and in series [2] were 7 and 4.6, respectively. In addition, the values for the MIC in series [1] and in series [2] were 0.1 µM (≈ 0.048 µg/mL) and 26 µM (≈ 12.5 µg/mL), respectively. For the same molecule, the result in series [3] and in series [4] was inactive. Further, the log partition coefficient (logP) in series [5] was determined as 2.68.
In the case of `CCCc1ccc2[nH]c(-c3ccc(OC)cc3)c(C3=C(Br)C(=O)NC3=O)c2c1`, the “-logMIC” value is listed as 6.3 in series [1] and 5.7 in series [2]. The MIC in series [1] came out at 0.45 µM (≈ 0.198 µg/mL); in series [2] it was 1.8 µM (≈ 0.791 µg/mL). Also, the result in series [3] and in series [4] was inactive. Further, in series [5], the log partition coefficient (logP) came to 3.45.
In the case of `CCCCc1ccc2[nH]c(-c3ccccc3)c(C3=C(Br)C(=O)NC3=O)c2c1`, the “-logMIC” value in series [1] is on record as 6.6; in series [2], 5.7. Also, the MIC in series [1] was determined as 0.24 µM (≈ 0.102 µg/mL); in series [2], 1.9 µM (≈ 0.804 µg/mL). The outcome in series [3] and in series [4] was inactive. The same molecule showed a log partition coefficient (logP) in series [5] of 3.74.
Regarding `CCCCOc1ccc2[nH]c(-c3cccc(OC)c3)c(C3=C(Br)C(=O)NC3=O)c2c1`, the “-logMIC” value in series [1] is 5.5; in series [2], 5.2. The MIC in series [1] was 3.3 µM (≈ 1.55 µg/mL); in series [2], 6.31 µM (≈ 2.96 µg/mL). Besides, the outcome in series [3] and in series [4] was inactive. In series [5], this molecule came in with a lipophilicity (logP) of 3.46.
Turning to `Cc1cccc(NC(=O)CCCc2[nH]c3ccccc3c2C2=C(Br)C(=O)NC2=O)c1`, the “-logMIC” value turned out to be 6.1 in series [1] and 4.6 in series [2]. Further, the minimal inhibitory concentration (MIC) turned out to be 0.79 µM (≈ 0.368 µg/mL) in series [1] and 27 µM (≈ 12.6 µg/mL) in series [2]. The outcome in series [3] and in series [4] was inactive. The molecule further displayed a lipophilicity (logP) in series [5] of 2.56.
For the molecule `CCCCOc1ccc2[nH]c(-c3ccccc3)c(C3=C(Br)C(=O)NC3=O)c2c1`, the “-logMIC” value in series [1] was 6.9; in series [2], 4.5. Further, the values for the MIC in series [1] and in series [2] were 0.11 µM (≈ 0.0483 µg/mL) and 28.4 µM (≈ 12.5 µg/mL), respectively. In addition, the result in series [3] and in series [4] was inactive. This molecule returned a log partition coefficient (logP) in series [5] of 3.42.
For the molecule `CCCc1cccc2c(C3=C(Br)C(=O)NC3=O)c(-c3ccc(OC)cc3)[nH]c12`, the figures for the “-logMIC” value in series [1] and in series [2] were 6.3 and 4.8, respectively. Also, the values for the MIC in series [1] and in series [2] were 0.5 µM (≈ 0.22 µg/mL) and 14.2 µM (≈ 6.24 µg/mL), respectively. For the same molecule, the result in series [3] and in series [4] was inactive. This molecule had a logP in series [5] of 3.58.
For `COc1ccc(-c2[nH]c3ccc(C)cc3c2C2=C(Br)C(=O)NC2=O)cc1`, the “-logMIC” value in series [1] came out at 6.9; in series [2], 5.1. For the same molecule, the results for the minimum inhibitory concentration (MIC) in series [1] and in series [2] were 0.12 µM (≈ 0.0494 µg/mL) and 7.6 µM (≈ 3.13 µg/mL), respectively. Moreover, the result in series [3] and in series [4] was inactive. In series [5], this molecule had a logP of 2.85.
Consider `CCOc1ccc2[nH]c(-c3ccccc3)c(C3=C(Br)C(=O)NC3=O)c2c1`, for which the “-logMIC” value in series [1] is 5.4; in series [2], 4.5. Further, the minimal inhibitory concentration (MIC) in series [1] stood at 3.8 µM (≈ 1.56 µg/mL); in series [2], 30.4 µM (≈ 12.5 µg/mL). Also, the result in series [3] and in series [4] was inactive. In series [5], the logP is 2.77.
For `CCCOc1ccc2[nH]c(-c3ccccc3)c(C3=C(Br)C(=O)NC3=O)c2c1`, the figures for the “-logMIC” value in series [1] and in series [2] were 6 and 4.2, respectively. The figures for the MIC in series [1] and in series [2] were 0.95 µM (≈ 0.404 µg/mL) and 58.8 µM (≈ 25 µg/mL), respectively. The outcome in series [3] and in series [4] was inactive. Moreover, the logP in series [5] was determined as 3.16.
For the molecule `CCCCCc1ccc2[nH]c(-c3ccccc3)c(C3=C(Br)C(=O)NC3=O)c2c1`, the entries for the “-logMIC” value in series [1] and in series [2] were 6 and 5.5, respectively. Moreover, the values for the minimum inhibitory concentration (MIC) in series [1] and in series [2] were 0.91 µM (≈ 0.398 µg/mL) and 3.6 µM (≈ 1.57 µg/mL), respectively. Besides, the result in series [3] and in series [4] was inactive. This molecule displayed a lipophilicity (logP) in series [5] of 4.07.
For `CCc1ccc2[nH]c(-c3ccc(OC)cc3)c(C3=C(Br)C(=O)NC3=O)c2c1`, the “-logMIC” value in series [1] amounted to 6.6; in series [2], 5.4. Besides, the MIC was 0.23 µM (≈ 0.0978 µg/mL) in series [1] and 3.67 µM (≈ 1.56 µg/mL) in series [2]. Also, the result in series [3] and in series [4] was inactive. Besides, the logP in series [5] amounted to 3.23.
Turning to `CCCCCc1ccc2[nH]c(-c3ccc(OC)cc3)c(C3=C(Br)C(=O)NC3=O)c2c1`, the “-logMIC” value in series [1] worked out at 6.1; in series [2] it was 5.5. Moreover, the MIC was 0.85 µM (≈ 0.397 µg/mL) in series [1] and 3.3 µM (≈ 1.54 µg/mL) in series [2]. For the same molecule, the result in series [3] and in series [4] was inactive. In series [5], this molecule showed a lipophilicity (logP) of 4.1.
As for `O=C1NC(=O)C(c2c(-c3ccc(OCc4ccccc4)cc3)[nH]c3ccccc23)=C1Br`, the entries for the “-logMIC” value in series [1] and in series [2] were 6.7 and 4.6, respectively. The minimal inhibitory concentration (MIC) was 0.21 µM (≈ 0.0994 µg/mL) in series [1] and 25.1 µM (≈ 11.9 µg/mL) in series [2]. For the same molecule, the result in series [3] and in series [4] was inactive. In series [5], the log partition coefficient (logP) came out at 3.3.
For `O=C(CCCc1[nH]c2ccccc2c1C1=C(Br)C(=O)NC1=O)Nc1ccccc1`, the entries for the “-logMIC” value in series [1] and in series [2] were 5.8 and 4.3, respectively. For the same molecule, the MIC turned out to be 1.7 µM (≈ 0.769 µg/mL) in series [1] and 55 µM (≈ 24.9 µg/mL) in series [2]. In addition, the outcome in series [3] and in series [4] was inactive. The molecule also registered a logP in series [5] of 2.56.
